From patent US8309550B2, “Kinase inhibitors and their use as pharmaceutical agents” (Shanghai Genomics, Inc., priority 2011, dated 2012)
Read-outs that look alike come from different tables or passages of the source.

Tests used:
THP-1 = assay: 72 h MTT cell viability THP-1; assay type: cell-based; conditions: Homo sapiens
Excerpt: (§1) MIT cytotoxicity assay. The compounds of the invention were subjected to a standard cellular proliferation assay using human cell lines. HeLa cells (Human cervix adenocarcinoma cell line, ATCC NO, CCL-2); A549 cells (Human lung carcinoma cells line, ATCC NO, CCL-185); U2OS cells (Human osteosarcoma cell line, ATCC NO, HTB-96); Eca-109 cells (Human esophageal carcinoma cell line); HepG2 (Human hepatocellular liver carcinoma cell line, ATCC NO, HB-8065); K562 cells (Human chronic myelogenous leukemia cell line, ATCC NO, CCL-243); SK-MEL-28 (Human malignant melanoma cell line, ATCC NO, HTB-72); Molt-4 (Human acute lymphoblastic leukemia cell line, ATCC NO, CRL-1582); H460 (Human large cell lung cancer cell line, ATCC NO, HTB-177); MDA-MB-231 (Human breast adenocarcinoma cell line, ATCC NO, HTB-26); MCF7 (Human breast adenocarcinoma cell line, ATCC NO, HTB-22); ACHN (Human renal cell adenocarcinoma cell line, ATCC NO, CRL-1611); PC-3M (Human prostate adenocarcinoma cell line, ATCC NO CRL-1435); HL60 (Human acute promyelocytic leukemia cell line, ATCC NO, CCL-240); THP-1 (Human acute monocytic leukemia, ATCC NO, TIB-202); Jurkat (Human acute T cell leukemia cell line, ATCC NO, CRL-2063); HCT-116 (Human colorectal carcinoma cell line, ATCC NO, CCL-247); HT-29 (Human colorectal adenocarcinoma cell line, ATCC NO, HTB-38™); WI-38 (Human normal lung cell line, ATCC NO, CCL-75); MRC-5 (Human normal lung cell line, ATCC NO, CCL-171).
(§2) HepG2, MDA-MB-231, WI-38 and MRC-5 cells were obtained from Shanghai Institute of Cell Biology, Chinese Academy of Sciences (Shanghai 200031, China). A549, HeLa, K562, MCF7, ACHN, H460, U2OS, Eca-109, MCF7, HL60, THP-1, Jurkat, HCT-116, HT-29, PC-3M, SK-MEL-28, Molt-4, H460 and […] cells were purchased from ATCC (American Type Culture Collection, USA).
(§3) Standard 72 h MTT (thiazolye blue; 3-[4,5-dimethylthiazol-2-yl]-2,5-diphenyltetrazolium bromide) assays were performed. Briefly, the cell lines used in this study were recovered and cultured according to the conditions recommended. 4000 cells per well were seeded into 96-well plates according to doubling time and incubated overnight at 37° C. Compounds were prepared in DMSO and a ½ dilution series in 100 μl cell culture media, added to cells (in duplicates) with the final DMSO concentration of 0.025%, and incubated for 72 hrs at 37° C. MTT solution (5 mg/ml) was added at 10 μl per well and incubated in the dark at 37° C. for 4 hr. Culture medium and MTT solution was removed. MTT dye was solubilised with 100 μl per well of DMSO with agitation. Absorbance was read at 562 nm and data analyzed using Sigmoid curve-fitting software Origin 6.0 (MicroCal, LLC, USA) to determine IC50 value.

HCT 116 = assay: 72 h MTT cell viability HCT 116; assay type: cell-based; conditions: Homo sapiens
Excerpt: as §1, §2, §3

HT-29 = assay: 72 h MTT cell viability HT-29; assay type: cell-based; conditions: Homo sapiens
Excerpt: as §1, §2, §3

CDK9T1 = CDK9T1 (Homo sapiens, UniProt P50750); assay: Kinase assay CDK9T1 (Table I); assay type: biochemical; conditions: read-out: Kinase inhibition, IC50 CDK9T1
Description: [The source words this procedure for another target and reports this target under the same test.] Kinase assays. The compounds from the example above were tested for their ability to inhibit kinases. Recombinant human CDK2/cyclinA (PV3267), CDK1/cyclinB (PV3292), CDK5/p35 (PV3000) and Aurora A (PV3612) were purchased from Invitrogen (Carlsbad, Calif., USA). Kinase dosage and Z′-LYTE™ substrate for each kinase assay is as follows: CDK2/cyclinA-8 ng/reaction, Ser/Thr 12 Peptide; CDK1/cyclinB-0.8 ng/reaction, Ser/Thr 12 Peptide, CDK5/p35-0.8 ng/reaction, Ser/Thr 12 Peptide, and Aurora A-16 ng/reaction, Ser/Thr 1 Peptide. All enzymatic assays were performed using Z′-LYTE™ Kinase Assay Kits and were carried out following protocols provided by Invitrogen. To prepare stock solutions, compounds were dissolved at 10 mM in 100% DMSO and stored at 4° C. in amber glass vials. Enzyme reactions were initiated by adding recombinant enzyme and Z′-LYTE™ Ser/Thr peptide substrate and ATP mixture to 384-well plates containing diluted test compounds. Kinase and corresponding peptide substrate were incubated for 1 hr at room temperature in the presence of varying amounts of test compound with reaction buffer (20 μM ATP, […] [pH 7.5], 5 mM MgCl2, 0.5 mM EGTA, 0.005% Brij-35). Development buffer was added and incubated for another one hour at room temperature. Reactions were terminated by addition of stop buffer, and fluorescence emission intensity ratio 445 nm/520 nm (excited at 400 nm) was quantified by VICTOR-3 Multilabel Reader (Perkin-Elmer, Waltham, Mass., USA). Phosphorylation was calculated from the emission ratio. IC50 was determined using Sigmoid curve-fitting software Origin 6.0 (MicroCal, LLC, Northampton, Mass., USA).

HeLa cells = assay: 72 h MTT cytotoxicity assay HeLa; assay type: cell-based; conditions: Homo sapiens
Excerpt: as §1, §2, §3

A549 cells = assay: 72 h MTT cytotoxicity assay A549; assay type: cell-based; conditions: Homo sapiens; A549, 72 hrs
Excerpt: as §1, §2, §3

U2OS cells = assay: 72 h MTT cytotoxicity assay U2OS; assay type: cell-based; conditions: Homo sapiens
Excerpt: as §1, §2, §3

Eca-109 cells = assay: 72 h MTT cytotoxicity assay Eca-109; assay type: cell-based; conditions: Homo sapiens; Eca-109, 72 hrs
Excerpt: as §1, §2, §3

HepG2 = assay: 72 h MTT cytotoxicity assay HepG2; assay type: cell-based; conditions: Homo sapiens; HepG2, 72 hrs
Excerpt: as §1, §2, §3

K562 cells = assay: 72 h MTT cytotoxicity assay K562; assay type: cell-based; conditions: Homo sapiens; K562, 72 hrs
Excerpt: as §1, §2, §3

MCF7 = assay: 72 h MTT cytotoxicity assay MCF7; assay type: cell-based; conditions: Homo sapiens; MCF7, 72 hrs
Excerpt: as §1, §2, §3

SK-MEL-28-luc = assay: 72 h MTT cytotoxicity assay SK-MEL-28-luc; assay type: cell-based; conditions: Homo sapiens
Excerpt: as §1, §2, §3

ACHN-luc = assay: 72 h MTT cell viability ACHN-luc; assay type: cell-based; conditions: Homo sapiens
Excerpt: as §1, §2, §3

PC-3M-luc = assay: 72 h MTT cell viability PC-3M-luc; assay type: cell-based; conditions: Homo sapiens
Excerpt: as §1, §2, §3

WI-38 = assay: 72 h MTT cell viability WI-38 (normal lung); assay type: cell-based; conditions: Homo sapiens; WI-38, normal lung cell line
Excerpt: as §1, §2, §3

[1] = THP-1, Table III, read-out: Cellular effect in mammalian cells IC50 THP-1
[2] = HCT116, Table III, read-out: Cellular effect in mammalian cells IC50 HCT116
[3] = HT29, Table III, read-out: Cellular effect in mammalian cells IC50 HT29
[4] = THP-1, read-out: Cell Viability IC50 THP-1
[5] = read-out: Cell Viability IC50 HCT 116
[6] = read-out: Cell Viability IC50 HT-29

CDK9T1, sequence (P50750 whole entry): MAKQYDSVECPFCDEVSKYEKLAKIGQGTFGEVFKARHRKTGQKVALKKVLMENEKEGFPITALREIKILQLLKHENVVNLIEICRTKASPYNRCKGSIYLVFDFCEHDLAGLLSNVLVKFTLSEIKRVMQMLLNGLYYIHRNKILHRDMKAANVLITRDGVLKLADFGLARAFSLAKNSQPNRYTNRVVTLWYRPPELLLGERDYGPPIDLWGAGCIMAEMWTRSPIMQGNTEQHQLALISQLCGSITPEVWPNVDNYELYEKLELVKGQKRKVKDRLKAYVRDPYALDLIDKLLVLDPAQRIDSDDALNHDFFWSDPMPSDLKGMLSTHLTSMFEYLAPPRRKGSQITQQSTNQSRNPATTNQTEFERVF
CDK9T1, sequence (O60563 whole entry partner): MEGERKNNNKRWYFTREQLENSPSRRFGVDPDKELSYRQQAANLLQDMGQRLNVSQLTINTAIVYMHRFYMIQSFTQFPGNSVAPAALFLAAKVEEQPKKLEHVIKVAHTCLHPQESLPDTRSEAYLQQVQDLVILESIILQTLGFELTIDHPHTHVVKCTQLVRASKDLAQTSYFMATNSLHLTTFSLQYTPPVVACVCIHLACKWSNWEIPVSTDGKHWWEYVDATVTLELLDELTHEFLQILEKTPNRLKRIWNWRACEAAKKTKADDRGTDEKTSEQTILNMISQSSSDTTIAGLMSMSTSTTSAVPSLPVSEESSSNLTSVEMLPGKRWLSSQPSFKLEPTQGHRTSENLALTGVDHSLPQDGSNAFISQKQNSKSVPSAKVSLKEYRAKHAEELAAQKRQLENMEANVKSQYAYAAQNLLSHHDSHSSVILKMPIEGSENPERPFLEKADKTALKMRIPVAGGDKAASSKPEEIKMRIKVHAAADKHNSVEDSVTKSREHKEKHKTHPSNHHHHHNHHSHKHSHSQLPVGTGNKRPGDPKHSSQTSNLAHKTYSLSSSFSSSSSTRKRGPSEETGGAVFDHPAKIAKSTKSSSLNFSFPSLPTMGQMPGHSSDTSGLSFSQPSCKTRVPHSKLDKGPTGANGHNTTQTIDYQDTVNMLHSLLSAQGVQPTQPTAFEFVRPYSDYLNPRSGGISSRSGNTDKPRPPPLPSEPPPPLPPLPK

Row | Structure (SMILES) | IC50 (THP-1; [1]) [nM] | IC50 (HCT 116; [2]) [nM] | IC50 (HT-29; [3]) [nM] | IC50 (CDK9T1) [nM] | IC50 (HeLa cells) [nM] | IC50 (A549 cells) [nM] | IC50 (U2OS cells) [nM] | IC50 (Eca-109 cells) [nM] | IC50 (HepG2) [nM] | IC50 (K562 cells) [nM] | IC50 (MCF7) [nM] | IC50 (SK-MEL-28-luc) [nM] | IC50 (ACHN-luc) [nM] | IC50 (PC-3M-luc) [nM] | IC50 (WI-38) [nM] | IC50 (THP-1; [4]) [nM] | IC50 (HCT 116; [5]) [nM] | IC50 (HT-29; [6]) [nM]
1 | CCCn1cc(-c2ccnc(Nc3ccc(C)c(S(=O)(=O)N4CCOCC4)c3)n2)c2ccncc21 [SG52] | 410 | 280 | 450 |  |  |  |  |  |  |  |  |  |  |  |  |  |  | 
2 | CCCn1cc(-c2ccnc(Nc3cccc(O)c3)n2)c2cccnc21 [Compound 16, 3-(4-(1-Propyl-1H-pyrrolo[2,3-b]pyridin-3-yl)pyrimidin-2-ylamino)phenol] |  |  |  | 140 | 14200 | 3330 | 7420 | 12900 | 1600 | 7680 | 2170 | 8510 | 7380 | 5110 | > 10000 |  |  | 
3 | CCCn1cc(-c2ccnc(Nc3cccc(S(N)(=O)=O)c3)n2)c2ccnc(Cl)c21 [Compound 96, 3-(4-(7-chloro-1-propyl-1H-pyrrolo[2,3-c]pyridin-3-yl)pyrimidin-2-ylamino)benzenesulfonamide] |  |  |  | 8.6 | 150 | 120 | 230 | > 10000 | 250 | 220 | 250 | 260 | 340 | 480 | > 10000 | 360 | 320 | 480
4 | CCCn1cc(-c2ccnc(Nc3ccc(O)cc3)n2)c2cccnc21 [Compound 15, 4-(4-(1-Propyl-1H-pyrrolo[2,3-b]pyridin-3-yl)pyrimidin-2-ylamino)phenol] |  |  |  | 1400 | 10400 | 4980 | 7440 | 20000 | 1160 | 9810 | 120 | 9430 | 7810 | 10500 | > 10000 |  |  | 
5 | CCCn1cc(-c2ccnc(Nc3cccc(S(N)(=O)=O)c3)n2)c2cccnc21 [Compound 22, 3-(4-(1-Propyl-1H-pyrrolo[2,3-b]pyridin-3-yl)pyrimidin-2-ylamino)benzenesulfonamide] |  |  |  | 97 | 1670 | 2820 | 2130 | 3400 | 700 | 1420 | 1130 | 2720 | 3740 | 3190 |  | 3260 | 1890 | 1460
6 | CCCn1cc(-c2ccnc(Nc3cccc(S(N)(=O)=O)c3)n2)c2ccncc21 [SG51] |  | 4 | 20 |  |  |  |  |  |  |  |  |  |  |  |  |  |  | 
7 | CCCn1cc(-c2ccnc(Nc3ccc(C)c(S(=O)(=O)N4CCOCC4)c3)n2)c2cccnc21 [Compound 24, N-(4-Methyl-3-(morpholinosulfonyl)phenyl)-4-(1-propyl-1H-pyrrolo[2,3-b]pyridin-3-yl)pyrimidin-2-amine] |  |  |  | 1010 | 1600 | 3690 | 3300 | 5300 | 1320 | 3680 | 3480 | 3050 | 5580 | 5020 | > 10000 | 5250 | 3430 | 1350
8 | CCCn1cc(-c2ccnc(Nc3cccc(S(N)(=O)=O)c3)n2)c2ccncc21 [Compound 111, 3-(4-(1-Propyl-1H-pyrrolo[2,3-c]pyridin-3-yl)pyrimidin-2-ylamino)benzenesulfonamide] |  |  |  | 0.6 | 10 | 10 | 30 | 50 | 580 | 30 | 80 | 10 | 60 | 6 |  | 10 |  | 
9 | CCCn1cc(-c2ccnc(Nc3ccc(S(N)(=O)=O)cc3)n2)c2nc(Cl)cc(C)c21 [SG54] | 2950 | 3460 | 150 |  |  |  |  |  |  |  |  |  |  |  |  |  |  | 
10 | CCCn1cc(-c2ccnc(Nc3cccc(S(N)(=O)=O)c3)n2)c2nc(Cl)cc(C)c21 [SG53] | 1040 |  |  |  |  |  |  |  |  |  |  |  |  |  |  |  |  | 
11 | CCCn1cc(-c2ccnc(Nc3ccc(C)c(S(=O)(=O)N4CCOCC4)c3)n2)c2ccncc21 [Compound 102, N-(4-Methyl-3-(morpholinosulfonyl)phenyl)-4-(1-propyl-1H-pyrrolo[2,3-c]pyridin-3-yl)pyrimidin-2-amine] |  |  |  | 0.4 | 490 | 570 | 570 | 3520 | 500 | 1440 | 1300 | 990 | 620 | 1130 |  |  |  | 
12 | CCCn1cc(-c2ccnc(Nc3cccc(S(N)(=O)=O)c3)n2)c2nc(Cl)cc(C)c21 [Compound 42, 3-(4-(5-Chloro-7-methyl-1-propyl-1H-pyrrolo[3,2-b]pyridin-3-yl)pyrimidin-2-ylamino)benzenesulfonamide] |  |  |  | 41 | 9930 | 1730 | 1860 | 10500 | 550 | > 10000 | > 10000 | 9450 | > 10000 | 4060 |  |  | 3360 | 200
13 | CCn1cc(-c2ccnc(Nc3cccc(C#N)c3)n2)c2cccnc21 [Compound 20, 3-(4-(1-Ethyl-1H-pyrrolo[2,3-b]pyridin-3-yl)pyrimidin-2-ylamino)benzonitrile] |  |  |  | 150 | 5550 | 3070 | > 10000 | > 10000 | 1810 | 6110 | > 10000 | 7790 | > 10000 | > 10000 |  | 2080 | > 10000 | 2930
